In patent US7718641B2, “Pyrrolo [3,4-H] isoquinoline compounds and methods for modulating gated ion channels” (Aros Pharma ApS, priority 2005, dated 2010):

Experiments:
Assay type in all cases: cell-based
rat ASIC3 = biological target: T1, rat ASIC3 (Rattus norvegicus, UniProt O35240); test: Whole-cell patch clamp of acid-induced peak inward currents in HEK293 transfected with rat ASIC3; conditions: for inhibitory effect on acid-induced peak inward currents, rASIC3: HEK293, voltage clamp, increasing concentrations; for potency as antagonist compared to amiloride, rASIC3: full dose-inhibition curves, HEK293
T1 construct: expressed in transfected cells; host or cells: HEK293
T1 sequence (O35240 1-533): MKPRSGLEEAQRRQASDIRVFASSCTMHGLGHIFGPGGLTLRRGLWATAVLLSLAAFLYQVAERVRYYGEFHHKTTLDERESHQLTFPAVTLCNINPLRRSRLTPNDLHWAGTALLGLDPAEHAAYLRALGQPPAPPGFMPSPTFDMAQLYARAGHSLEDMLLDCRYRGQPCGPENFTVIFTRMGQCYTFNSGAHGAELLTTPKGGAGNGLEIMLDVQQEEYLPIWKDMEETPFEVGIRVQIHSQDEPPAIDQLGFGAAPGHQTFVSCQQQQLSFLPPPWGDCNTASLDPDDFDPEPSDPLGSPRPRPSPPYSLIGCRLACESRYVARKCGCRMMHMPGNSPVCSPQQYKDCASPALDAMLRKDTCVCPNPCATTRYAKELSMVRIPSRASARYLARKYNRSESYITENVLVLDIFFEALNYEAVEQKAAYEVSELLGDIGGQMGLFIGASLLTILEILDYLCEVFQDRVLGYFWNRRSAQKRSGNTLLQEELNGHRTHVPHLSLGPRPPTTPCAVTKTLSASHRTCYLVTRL
Protocol: (§1) Another example of an in vitro assessment method consists of using mammalian heterologous expression systems, which are known to the skilled in the art, and include a variety of mammalian cell lines such as COS, HEK, e.g., HEK293 and/or CHO, cells. Cell lines are transfected with gated ion channel(s) and used to perform electrophysiology as follows:
(§2) All experiments are performed at room temperature (20-25° C.) in voltage clamp using conventional whole cell patch clamp methods (Neher, E., et al. (1978) Pfluegers Arch 375:219-228).
(§3) The amplifier used is the EPC-9 (HEKA-electronics, Lambrect, Germany) run by a Macintosh G3 computer via an ITC-16 interface. Experimental conditions are set with the Pulse-software accompanying the amplifier. Data is low pass filtered and sampled directly to hard-disk at a rate of 3 times the cut-off frequency.
(§4) Pipettes are pulled from borosilicate glass using a horizontal electrode puller (Zeitz-Instrumente, Augsburg, Germany). The pipette resistances are 2-3 MOhms in the salt solutions used in these experiments. The pipette electrode is a chloridized silver wire, and the reference is a silver chloride pellet electrode (In Vivo Metric, Healdsburg, USA) fixed to the experimental chamber. The electrodes are zeroed with the open pipette in the bath just prior to sealing.
(§5) Coverslips with the cells are transferred to a 15 μl experimental chamber mounted on the stage of an inverted microscope (IMT-2, Olympus) supplied with Nomarski optics. Cells are continuously superfused with extracellular saline at a rate of 2.5 ml/min. After giga-seal formation, the whole cell configuration is attained by suction. The cells are held at a holding voltage of −60 mV and at the start of each experiment the current is continuously measured for 45 s to ensure a stable baseline. Solutions of low pH (<7) are delivered to the chamber through a custom-made gravity-driven flowpipe, the tip of which is placed approximately 50 μm from the cell. Application is triggered when the tubing connected to the flowpipe is compressed by a valve controlled by the Pulse-software. Initially, low pH (in general, pH 6.5) is applied for 5 s every 60 s. The sample interval during application is 5501s. […] Current amplitudes are measured at the peak of the responses, and effect of the compounds is calculated as the amplitude at compound equilibrium divided by the amplitude of the current evoked by the pulse just before the compound was included. […]
(§6) HEK293 cells were transfected with rASIC1a or rASIC3 and were used to perform full dose-inhibition curves with Compound A, Compound H and amiloride. Results are expressed as a fraction of the control peak current obtained in the absence of the test substance.

rat ASIC1a = biological target: T2, rat ASIC1a (Rattus norvegicus, UniProt P55926); test: Whole-cell patch clamp of acid-induced peak inward currents in HEK293 transfected with rat ASIC1a; conditions: for inhibitory effect on acid-induced peak inward currents, rASIC1a: HEK293, voltage clamp, increasing concentrations; for potency as antagonist compared to amiloride, rASIC1a: full dose-inhibition curves, HEK293
T2 construct: expressed in transfected cells; host or cells: HEK293
T2 sequence (P55926 1-526): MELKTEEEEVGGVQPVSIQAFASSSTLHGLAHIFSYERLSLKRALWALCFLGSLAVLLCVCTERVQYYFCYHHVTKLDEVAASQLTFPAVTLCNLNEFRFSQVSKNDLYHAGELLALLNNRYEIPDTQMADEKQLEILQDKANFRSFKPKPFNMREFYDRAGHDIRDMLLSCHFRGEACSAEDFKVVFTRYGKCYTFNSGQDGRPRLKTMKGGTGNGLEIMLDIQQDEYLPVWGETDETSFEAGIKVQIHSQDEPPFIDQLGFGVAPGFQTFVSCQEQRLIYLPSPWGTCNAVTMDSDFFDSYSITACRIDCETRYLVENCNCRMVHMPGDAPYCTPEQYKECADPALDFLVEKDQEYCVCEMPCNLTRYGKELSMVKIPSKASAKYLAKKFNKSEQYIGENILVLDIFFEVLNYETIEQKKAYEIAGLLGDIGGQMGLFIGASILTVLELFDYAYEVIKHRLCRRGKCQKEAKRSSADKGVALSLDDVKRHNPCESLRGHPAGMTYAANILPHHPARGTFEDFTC
Protocol: as §1, §2, §3, §4, §5, §6

[1] = system: rat dorsal root ganglion neurons; test: Patch clamp (current clamp) of acid-induced action potential generation in rat dorsal root ganglion neurons in primary culture; conditions: 1 μM, current-clamp mode, n=3
Protocol: The acid-evoked action potentials were recorded in the presence and absence of Compound A (1 μM) or Compound H (1 μM) using the whole cell configuration of the patch clamp method (current clamp mode).
Sensory neurons can be isolated and cultured in vitro from different animal species. The most widely used protocols use sensory neurons isolated from neonatal (Eckert, et al. (1997) J Neurosci Methods 77:183-190) and embryonic (Vasko, et al. (1994) J Neurosci 14:4987-4997) rat. […] Electrophysiology is performed similarly as described above in Example 2. […] In the current-clamp mode, change in the trans-membrane potential are recorded. Under acidic conditions (e.g., pH 6.5) the membrane depolarizes, leading to the firing of action potentials, as shown in FIGS. 7A and 7B.

SMILES | inhibitory effect on acid-induced peak inward currents, rASIC3 (rat ASIC3) | potency as antagonist compared to amiloride, rASIC3 (rat ASIC3) | inhibitory effect on acid-induced peak inward currents, rASIC1a (rat ASIC1a) | potency as antagonist compared to amiloride, rASIC1a (rat ASIC1a) | effect on acid-induced membrane depolarization and action potential firing [1]
COc1ccc(F)cc1-c1cc2c(c3c1CCN(C)C3)NC(=O)/C2=N/O [Compound A, 5-(5-fluoro-2-methoxyphenyl)-6,7,8,9-tetrahydro-3-(hydroxyimino)-8-methyl-1H-pyrrolo[3,2-h]isoquinoline-2(3H)-one] | dose-dependently inhibit | more potent antagonists as compared to amiloride | dose-dependently inhibit | more potent antagonists as compared to amiloride | inhibit the acid-induced membrane depolarization and reduces the ensuing rate of action potential firing
CCN1CCc2c(-c3ccccc3)cc3c(c2C1)NC(=O)/C3=N/O [Compound H, 5-phenyl-6,7,8,9-tetrahydro-3-(hydroxyimino)-8-ethyl-1H-pyrrolo[3,2-h]isoquinoline-2(3H)-one] | dose-dependently inhibit | more potent antagonists as compared to amiloride | dose-dependently inhibit | more potent antagonists as compared to amiloride | inhibit the acid-induced membrane depolarization and reduces the ensuing rate of action potential firing
